Data from ChEMBL document CHEMBL1629592, “Real-time monitoring of human enterovirus (HEV)-infected cells and anti-HEV 3C protease potency by fluorescence resonance energy transfer” (Antimicrob Agents Chemother, 2009).

Experiments:
Format in all cases: functional, organism-based
Enterovirus [1] = experiment: Antiviral activity against Human enterovirus CVB1 infected in Vero cells after 4 to 7 days by plaque reduction assay
Enterovirus [2] = experiment: Antiviral activity against Human enterovirus CVA16 infected in human HeLa cells after 2 to 4 days by formazan dye reduction assay
Enterovirus [3] = experiment: Antiviral activity against Human enterovirus Echo9 infected in human HeLa cells after 2 to 4 days by formazan dye reduction assay
Enterovirus [4] = experiment: Antiviral activity against Human enterovirus CVB4 infected in human HeLa-G3CwtR cells after 36 to 48 hrs by FRET assay
Enterovirus [5] = experiment: Antiviral activity against Human enterovirus Echo9 infected in human HeLa-G3CwtR cells after 36 to 48 hrs by FRET assay
Enterovirus [6] = experiment: Antiviral activity against Human enterovirus CVB2 infected in Vero cells after 4 to 7 days by plaque reduction assay
Enterovirus [7] = experiment: Antiviral activity against Human enterovirus CVB4 infected in Vero cells after 4 to 7 days by plaque reduction assay
Enterovirus [8] = experiment: Antiviral activity against Human enterovirus CVA16 infected in Vero cells after 4 to 7 days by plaque reduction assay
Enterovirus [9] = experiment: Antiviral activity against Human enterovirus CVB4 infected in human HeLa cells after 2 to 4 days by formazan dye reduction assay
Enterovirus [10] = experiment: Antiviral activity against Human enterovirus CVB1 infected in human HeLa cells after 2 to 4 days by formazan dye reduction assay
Enterovirus [11] = experiment: Antiviral activity against Human enterovirus CVB2 infected in human HeLa cells after 2 to 4 days by formazan dye reduction assay
Enterovirus [12] = experiment: Antiviral activity against Human enterovirus EV71 infected in human HeLa-G3CwtR cells after 36 to 48 hrs by FRET assay
Enterovirus [13] = experiment: Antiviral activity against Human enterovirus EV71 infected in Vero cells after 4 to 7 days by plaque reduction assay
Enterovirus [14] = experiment: Antiviral activity against Human enterovirus CVB2 infected in human HeLa-G3CwtR cells after 36 to 48 hrs by FRET assay
Enterovirus [15] = experiment: Antiviral activity against Human enterovirus EV71 infected in human HeLa cells after 2 to 4 days by formazan dye reduction assay
Enterovirus [16] = experiment: Antiviral activity against Human enterovirus Echo9 infected in Vero cells after 4 to 7 days by plaque reduction assay
Enterovirus [17] = experiment: Antiviral activity against Human enterovirus CVB1 infected in human HeLa-G3CwtR cells after 36 to 48 hrs by FRET assay
Enterovirus [18] = experiment: Antiviral activity against Human enterovirus CVA16 infected in human HeLa-G3CwtR cells after 36 to 48 hrs by FRET assay

`CCOC(=O)/C=C/[C@H](C[C@@H]1CCNC1=O)NC(=O)[C@@H](CC(=O)[C@@H](NC(=O)c1cc(C)on1)C(C)C)Cc1ccc(F)cc1` [RUPINTRIVIR] gave an EC50 (Enterovirus [1]) of 1720 nM, an EC50 (Enterovirus [2]) of 270 nM and an EC50 (Enterovirus [3]) of 360 nM. The EC50 (Enterovirus [4]) was 877 nM, the EC50 (Enterovirus [5]) was 434 nM and the EC50 (Enterovirus [6]) was 982 nM. For the same compound, the EC50 (Enterovirus [7]) was 843 nM, the EC50 (Enterovirus [8]) was 419 nM and the EC50 (Enterovirus [9]) was 372 nM. It also gave an EC50 (Enterovirus [10]) of 1250 nM, an EC50 (Enterovirus [11]) of 783 nM and an EC50 (Enterovirus [12]) of 781 nM. For the same compound, the EC50 (Enterovirus [13]) was 791 nM, the EC50 (Enterovirus [14]) was 857 nM and the EC50 (Enterovirus [15]) was 561 nM. For the same compound, the EC50 (Enterovirus [16]) was 481 nM, the EC50 (Enterovirus [17]) was 1640 nM and the EC50 (Enterovirus [18]) was 331 nM.
